test system: TEAD-YAP/TAZ interaction; assay: CTGF ELISA assay; format: cell-based, human; conditions: CTGF in culture supernatant of NCI-H2052 cells, 24 hours with compound
Experimental: The detection of CTGF expression level can assessed the binding activity of TEAD-YAP/TAZ transcription factor, and the CTGF expression level was quantified by SimpleStep ELISA® kit (Abcam, ab261851).
NCI-H2052 cells (Purchased from ATCC) were cultured in RPMI 1640 medium, adding 10% FBS and 1% Penicillin-Streptomycin Solution and 1 mM Sodium pyruvate. The day before compounds treatment, the cultured cells were washed with PBS and digested with trypsin, then centrifuged and collected. Discarded the supernatant, the cells were resuspended in fresh complete medium. After cells counted, cells were seeded at 6500 cells/well in 96-well plates. And then cells were cultured overnight in incubator (37° C., 5% CO2).
After the cells were cultured overnight, discarded the culture supernatant, then washed with PBS solution, cells were incubated with 200 μl medium containing compounds in each well. The starting concentration was 10 μM and serial dilution in DMSO and medium were performed to achieve a final DMSO concentration of 0.5% (Final compounds concentration were 10000, 2500, 625, 156, 39.1, 9.77, 2.44, 0.61 nM, 0 nM (0.5% DMSO), The cells were then cultured in incubator (37° C., 5% CO2). Cultured for 24 hours, the cells were centrifuged at 1500 RPM at 4° C. for 5 minutes, and then 50 μl of culture supernatant were tested for CTGF ELISA assay.
The Human CTGF SimpleStep ELISA® Kit (Abcam, ab261851) employs an affinity tag labeled capture antibody and a reporter conjugated detector antibody which immunocapture the sample analyte in solution. This entire complex (capture antibody/analyte/detector antibody) is in turn immobilized via immunoaffinity of an anti-tag antibody coating the well. To perform the assay, samples or standards are added to the wells, followed by the antibody mix (capture antibody/detector antibody). After incubation, the wells are washed to remove unbound material. TMB Development Solution is added and during incubation is catalyzed by HRP, generating blue coloration. This reaction is then stopped by addition of Stop Solution completing any color change from blue to yellow. Signal is generated proportionally to the amount of bound analyte and the intensity is measured at 450 nm. Firstly, prepare all reagents, samples, and standards as instructed. Add 50 μl standard or sample to appropriate wells. Then add 50 μl of the Antibody Cocktail to each well. Seal the plate and incubate for 1 hour at room temperature on a plate shaker. Wash each well with Wash Buffer three times. Add 100 μl of TMB Development Solution to each well and incubate for 10 minutes in the dark on a plate shaker. Add 100 μl of Stop Solution to each well. Shake plate on a plate shaker for 1 minute to mix. Record the OD at 450 nm. Determine the concentration of the target protein in the sample by the standard curve.
EC50 value was determined by fitting the concentration response curves using GraphPad Prism software. The compounds of the present invention were tested for their capacity to inhibit TEAD-YAP/TAZ interaction according to the fitted curves of CTGF concentration response to compounds.

Row | EC50 [nM] | Compound
1 | 20 | C=C(F)C(=O)N1CC(n2nc(-c3ccc(C(F)(F)F)nc3)c3ccc(C)nc32)C1 [Compound 199, 2-fluoro-1-(3-(6-methyl-3-(6-(trifluoromethyl)pyridin-3-yl)-1H-pyrazolo[3,4-b]pyridin-1-yl)-azetidin-1-yl)prop-2-en-1-one]
2 | 32 | C=C(F)C(=O)N1CC(n2c(=O)n(-c3ccc(C(F)(F)F)cc3)c3cc(C(F)(F)F)cnc32)C1 [Compound 245, 3-(1-(2-fluoroacryloyl)azetidin-3-yl)-6-(trifluoromethyl)-1-(4-(trifluoromethyl)phenyl)-1,3-dihydro-2H-imidazo[4,5-b]pyridin-2-one]
3 | 183 | C=CC(=O)N1CCC(n2nc(-c3ccc(C(F)(F)F)nc3)c3cccc(C(=O)NC)c32)C1 (centres unmarked) [Compound 102, 1-(1-acryloylpyrrolidin-3-yl)-N-methyl-3-(6-(trifluoromethyl)-pyridin-3-yl)-1H-indazole-7-carboxamide]
4 | 15 | C=CC(=O)N1CCC(n2nc(-c3ccc(C(F)(F)F)cc3)c3cccc(Cl)c32)C1 (centres unmarked) [Compound 45, 1-(3-(7-chloro-3-(4-(trifluoro-methyl)phenyl)-1H-indazol-1-yl)-pyrrolidin-1-yl)prop-2-en-1-one]
5 | 0.7 | C=C(F)C(=O)N1CC(c2nc(-c3ccc(C(F)(F)F)cc3)nc3ccccc23)C1 [Compound 256, 2 fluoro-1-(3-(2-(4-(trifluoromethyl)phenyl)quinazolin-4 yl)azetidin-1 yl)prop-2-en-1-one]
6 | 32 | C=CC(=O)N1CCC(n2nc(-c3ccc(C(F)(F)F)cc3)c3ccc(OC)cc32)C1 (centres unmarked) [Compound 54, 1-(3-(6-methoxy-3-(4-(trifluoro-methyl)phenyl)-1H-indazol-1-yl)-pyrrolidin-1-yl)prop-2-en-1-one]
7 | 3 | C=CC(=O)N1CC(n2c(=O)n(-c3ccc(C(F)(F)F)cc3)c3ccccc32)C1 [Compound 236, 1-(1-acryloylazetidin-3-yl)-3-(4-(trifluoromethyl)phenyl)-1,3-dihydro-2H-benzo[d]imidazol-2-one]
8 | 84 | C=CC(=O)N1CCC(n2nc(-c3ccc(C(F)(F)F)nc3)c3cccc(C(=O)NC(C)C)c32)C1 (centres unmarked) [Compound 98, 1-(1-acryloylpyrrolidin-3-yl)-N-isopropyl-3-(6-(trifluoromethyl)-pyridin-3-yl)-1H-indazole-7-carboxamide]
9 | 86 | C=CC(=O)N1CCC(n2nc(-c3ccc(C(F)(F)F)cc3)c3cccc(C(=O)N4CCC(F)(F)C4)c32)C1 (centres unmarked) [Compound 112, 1-(3-(7-(3,3-difluoropyrrolidine-1-carbonyl)-3-(4-(trifluoro-methyl)phenyl)-1H-indazol-1-yl)-pyrrolidin-1-yl)prop-2-en-1-one]
10 | 20 | C=CC(=O)NC1CN(c2nc(-c3ccc(C(F)(F)F)cc3)n3ccccc23)C1 [Compound 13, N-(1-(3-(4-(trifluoromethyl)phenyl)imidazo[1,5-a]pyridin-1 yl)azetidin-3 yl)acrylamide]
11 | 44 | C=CC(=O)N1CCC(n2nc(-c3ccc(C(F)(F)F)cc3)c3cc(F)c(F)cc32)C1 (centres unmarked) [Compound 51, 1-(3-(5,6-difluoro-3-(4-(trifluoro-methyl)phenyl)-1H-indazol-1-yl)-pyrrolidin-1-yl)prop-2-en-1-one]
12 | 5 | C=CC(=O)N1CCC(n2nc(-c3ccc(C(F)(F)F)cc3)c3ncn(C)c(=O)c32)C1 (centres unmarked) [Compound 7, 1-(1-acryloylpyrrolidin-3-yl)-6-methyl-3-(4-(trifluoromethyl)phenyl)-1,6-dihydro-7H-pyrazolo[4,3-d]pyrimidin-7-one]
13 | 70 | C/C=C/C(=O)N1CCC(n2nc(-c3ccc(C(F)(F)F)cc3)c3ccccc32)C1 (centres unmarked) [Compound 56, (E)-1-(3-(3-(4-(trifluoromethyl)-phenyl)-1H-indazol-1-yl)pyrrol-idin-1-yl)but-2-en-1-one]
14 | 0.9 | C=C(F)C(=O)N1CC(n2nc(-c3ccc(C(F)(F)F)cc3)c3ccc(OC)nc32)C1 [Compound 221, 2-fluoro-1-(3-(6-methoxy-3-(4-(trifluoromethyl)phenyl)-1H-pyrazolo[3,4-b]pyridin-1-yl)-azetidin-1-yl)prop-2-en-1-one]

From patent US20230391779A1, “BICYCLIC COMPOUNDS, COMPOSITIONS AND USE THEREOF” (Betta Pharmaceuticals Co., Ltd., priority 2020, published 2023)
